Assay results reported in US11702404B2, “GLP-1R modulating compounds” (priority 2019, dated 2023).

What was measured:
GLP-1R = GLP-1R (Homo sapiens, UniProt P43220); test: GLP-1R activation: cAMP increase in CHO cells stably expressing GLP-1R; format: cell-based; details: cAMP increase, CHO cells stably expressing GLP-1R, 10 point dose response, 30 minutes incubation; read-out: EC50
[1] = Microsomal stability, human liver microsomes (predicted hepatic clearance); details: predicted from in vitro microsomal stability data

Sequence of GLP-1R (P43220 24-463): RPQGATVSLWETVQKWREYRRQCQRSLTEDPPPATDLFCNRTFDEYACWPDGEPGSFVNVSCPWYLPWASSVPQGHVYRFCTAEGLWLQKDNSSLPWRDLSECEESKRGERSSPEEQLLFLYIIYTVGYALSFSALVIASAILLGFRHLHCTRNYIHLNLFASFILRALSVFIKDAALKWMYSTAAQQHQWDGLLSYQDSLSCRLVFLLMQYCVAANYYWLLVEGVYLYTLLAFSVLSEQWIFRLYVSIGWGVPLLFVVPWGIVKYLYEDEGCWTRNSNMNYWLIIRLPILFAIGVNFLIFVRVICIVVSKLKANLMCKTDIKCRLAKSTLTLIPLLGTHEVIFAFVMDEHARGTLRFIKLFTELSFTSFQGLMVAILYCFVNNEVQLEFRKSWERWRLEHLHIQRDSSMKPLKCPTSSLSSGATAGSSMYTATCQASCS

EC50 (GLP-1R) [nM]	Predicted Hepatic Clearance (Pred. Cl.) [1] [mL/min/kg]	SMILES
9.01	7.5	C[C@@]1(Cn2c(Cc3cc(F)c(-c4cccc(OCc5ccc(C#N)cc5F)n4)cc3F)nc3ccc(C(=O)O)cc32)CCCO1 (racemic) [Example 548, 2-(4-(6-((4-cyano-2-fluorobenzyl)oxy)pyridin-2-yl)-2,5-difluorobenzyl)-1-((2-methyltetrahydrofuran-2-yl)methyl)-1H-benzo[d]imidazole-carboxylic acid]
45.5	12	CC1(C)CC[C@@H](Cn2c(Cc3cc(F)c(-c4cccc(OCc5ccc(C#N)cc5F)n4)cc3F)nc3ccc(C(=O)O)cc32)O1 (racemic) [Example 549, 2-(4-(6-((4-cyano-2-fluorobenzyl)oxy)pyridin-2-yl)-2,5-difluorobenzyl)-1-((5,5-dimethyltetrahydrofuran-2-yl)methyl)-1H-benzo[d]imidazole-6-carboxylic acid]
0.89	6.5	N#Cc1ccc(COc2cccc(-c3cc(F)c(Cc4nc5ccc(C(=O)O)cc5n4C[C@@H]4CC(F)(F)CO4)cc3F)n2)c(F)c1 (racemic) [Example 573, 2-(4-(6-((4-cyano-2-fluorobenzyl)oxy)pyridin-2-yl)-2,5-difluorobenzyl)-1-((4,4-difluorotetrahydrofuran-2-yl)methyl)-1H-benzo[d]imidazole-6-carboxylic acid]
3460	15.2	COCCn1c(Cc2ccc(-c3cccc(OCc4ccc(C#N)cc4F)n3)cc2F)nc2ccc(C(O)CO)cc21 (racemic) [Example 582]
1100	13.8	COCCn1c(Cc2ccc(-c3nc(OCc4ccc(C#N)cc4F)ccc3C)cc2)nc2ccc(C(=O)O)cc21 (single isomer, unassigned) [Example 23, 2-(4-(6-((4-cyano-2-fluorobenzyl)oxy)-3-methylpyridin-2-yl)benzyl)-1-(2-methoxyethyl)-1H-benzo[d]imidazole-6-carboxylic acid]
1720	2.17	COCCn1c(Cc2ccc(-c3ccc(C)c(OCc4ccc(C#N)cc4F)n3)cc2)nc2ccc(C(=O)O)cc21 (single isomer, unassigned) [Example 24, 2-(4-(6-((4-cyano-2-fluorobenzyl)oxy)-5-methylpyridin-2-yl)benzyl)-1-(2-methoxyethyl)-1H-benzo[d]imidazole-6-carboxylic acid]
62.4	5	COCCn1c(C2CCc3cc(-c4cccc(OCc5ccc(C#N)cc5F)n4)ccc32)nc2ccc(C(=O)O)cc21 (single isomer, unassigned) [Example 46, 2-(5-(6-((4-cyano-2-fluorobenzyl)oxy)pyridin-2-yl)-2,3-dihydro-1H-inden-1-yl)-1-(2-methoxyethyl)-1H-benzo[d]imidazole-6-carboxylic acid]
1440	4.67	COCCn1c(C2CCc3cc(-c4cccc(OCc5ccc(C#N)cc5F)n4)ccc32)nc2ccc(C(=O)O)cc21 (single isomer, unassigned) [Example 47, 2-(5-(6-((4-cyano-2-fluorobenzyl)oxy)pyridin-2-yl)-2,3-dihydro-1H-inden-1-yl)-1-(2-methoxyethyl)-1H-benzo[d]imidazole-6-carboxylic acid]
575	3.67	COCCn1c(C2OCCc3cc(-c4cccc(OCc5ccc(C#N)cc5F)n4)ccc32)nc2ccc(C(=O)O)cc21 (single isomer, unassigned) [Example 48, 2-(6-(6-((4-cyano-2-fluorobenzyl)oxy)pyridin-2-yl)isochroman-1-yl)-1-(2-methoxyethyl)-1H-benzo[d]imidazole-6-carboxylic acid]
> 1000	13	COCCn1c(C2OCCc3cc(-c4cccc(OCc5ccc(C#N)cc5F)n4)ccc32)nc2ccc(C(=O)O)cc21 (single isomer, unassigned) [Example 49, 2-(6-(6-((4-cyano-2-fluorobenzyl)oxy)pyridin-2-yl)isochroman-1-yl)-1-(2-methoxyethyl)-1H-benzo[d]imidazole-6-carboxylic acid]
12	<1.83	N#Cc1ccc(COc2cccc(-c3ccc(Cc4nc5ccc(C(=O)O)cc5n4CC4CCS4(=O)=O)c(F)c3)n2)c(F)c1 (single isomer, unassigned) [Example 69, 2-(4-(6-((4-cyano-2-fluorobenzyl)oxy)pyridin-2-yl)-2-fluorobenzyl)-1-((1,1-dioxidothietan-2-yl)methyl)-1H-benzo[d]imidazole-6-carboxylic acid]
64	2.17	N#Cc1ccc(COc2cccc(-c3ccc(Cc4nc5ccc(C(=O)O)cc5n4CC4CCS4(=O)=O)c(F)c3)n2)c(F)c1 (single isomer, unassigned) [Example 70, 2-(4-(6-((4-cyano-2-fluorobenzyl)oxy)pyridin-2-yl)-2-fluorobenzyl)-1-((1,1-dioxidothietan-2-yl)methyl)-1H-benzo[d]imidazole-6-carboxylic acid]
26.5	11	COCCNC(=O)C(Cn1c(Cc2ccc(-c3cccc(OCc4ccc(C#N)cc4F)n3)cc2F)nc2ccc(C(=O)O)cc21)OC (single isomer, unassigned) [Example 328, 2-(4-(6-((4-cyano-2-fluorobenzyl)oxy)pyridin-2-yl)-2-fluorobenzyl)-1-(2-methoxy-3-((2-methoxyethyl)amino)-3-oxopropyl)-1H-benzo[d]imidazole-6-carboxylic acid]
286	7.83	COC(Cn1c(Cc2ccc(-c3cccc(OCc4ccc(C#N)cc4F)n3)cc2F)nc2ccc(C(=O)O)cc21)C(=O)Nc1nccs1 (single isomer, unassigned) [Example 329, 2-(4-(6-((4-cyano-2-fluorobenzyl)oxy)pyridin-2-yl)-2-fluorobenzyl)-1-(2-methoxy-3-oxo-3-(thiazol-2-ylamino)propyl)-1H-benzo[d]imidazole-6-carboxylic acid]
17.2	3.17	CNC(=O)C(Cn1c(Cc2ccc(-c3cccc(OCc4ccc(C#N)cc4F)n3)cc2F)nc2ccc(C(=O)O)cc21)OC (single isomer, unassigned) [Example 330, 2-(4-(6-((4-cyano-2-fluorobenzyl)oxy)pyridin-2-yl)-2-fluorobenzyl)-1-(2-methoxy-3-(methylamino)-3-oxopropyl)-1H-benzo[d]imidazole-6-carboxylic acid]
120	<1.83	COC(Cn1c(Cc2ccc(-c3cccc(OCc4ccc(C#N)cc4F)n3)cc2F)nc2ccc(C(=O)O)cc21)C(=O)O (single isomer, unassigned) [Example 332, 1-(2-carboxy-2-methoxyethyl)-2-(4-(6-((4-cyano-2-fluorobenzyl)oxy)pyridin-2-yl)-2-fluorobenzyl)-1H-benzo[d]imidazole-6-carboxylic acid]
624	<1.83	COC(Cn1c(Cc2ccc(-c3cccc(OCc4ccc(C#N)cc4F)n3)cc2F)nc2ccc(C(=O)O)cc21)C(=O)O (single isomer, unassigned) [Example 333, 1-(2-carboxy-2-methoxyethyl)-2-(4-(6-((4-cyano-2-fluorobenzyl)oxy)pyridin-2-yl)-2-fluorobenzyl)-1H-benzo[d]imidazole-6-carboxylic acid]
7.11	3.3	COC(Cn1c(Cc2ccc(-c3cccc(OCc4ccc(C#N)cc4F)n3)cc2F)nc2ccc(C(=O)O)cc21)C(N)=O (single isomer, unassigned) [Example 334, 1-(3-amino-2-methoxy-3-oxopropyl)-2-(4-(6-((4-cyano-2-fluorobenzyl)oxy)pyridin-2-yl)-2-fluorobenzyl)-1H-benzo[d]imidazole-6-carboxylic acid]
139	4.83	COCCNC(=O)C(Cn1c(Cc2ccc(-c3cccc(OCc4ccc(C#N)cc4F)n3)cc2F)nc2ccc(C(=O)O)cc21)OC (single isomer, unassigned) [Example 335, 2-(4-(6-((4-cyano-2-fluorobenzyl)oxy)pyridin-2-yl)-2-fluorobenzyl)-1-(2-methoxy-3-((2-methoxyethyl)amino)-3-oxopropyl)-1H-benzo[d]imidazole-6-carboxylic acid]
4.9	7	CNC(=O)C(Cn1c(Cc2ccc(-c3cccc(OCc4ccc(C#N)cc4F)n3)cc2F)nc2ccc(C(=O)O)cc21)OC (single isomer, unassigned) [Example 336, 2-(4-(6-((4-cyano-2-fluorobenzyl)oxy)pyridin-2-yl)-2-fluorobenzyl)-1-(2-methoxy-3-(methylamino)-3-oxopropyl)-1H-benzo[d]imidazole-6-carboxylic acid]
13.7	4.83	CNC(=O)C(Cn1c(Cc2ccc(-c3cccc(OCc4ccc(C#N)cc4F)n3)cc2F)nc2ccc(C(=O)O)cc21)OC (single isomer, unassigned) [Example 337, 2-(4-(6-((4-cyano-2-fluorobenzyl)oxy)pyridin-2-yl)-2-fluorobenzyl)-1-(2-methoxy-3-(methylamino)-3-oxopropyl)-1H-benzo[d]imidazole-6-carboxylic acid]
2510	13	COC(Cn1c(Cc2ccc(-c3cccc(OCc4ccc(C#N)cc4F)n3)cc2F)nc2ccc(C(=O)O)cc21)C(=O)Nc1nccs1 (single isomer, unassigned) [Example 338, 2-(4-(6-((4-cyano-2-fluorobenzyl)oxy)pyridin-2-yl)-2-fluorobenzyl)-1-(2-methoxy-3-oxo-3-(thiazol-2-ylamino)propyl)-1H-benzo[d]imidazole-6-carboxylic acid]
